The text below walks through data of patent USRE47689E1, “Compounds for treating spinal muscular atrophy” (PTC Therapeutics, Inc., priority 2011, dated 2019).

The test system of series [1] is SMN2 minigene (full length SMN2 minigene mRNA containing SMN2 exon 7). The experiment in a line: SMN2 minigene mRNA splicing RT-qPCR assay in cultured cells. The format is cell-based, human. The conditions noted are these: Homo sapiens, HEK293-H; HEK293H cells stably transfected with SMN2-A minigene; 24 hours; 7-point concentration curve; 1.5-fold relative to vehicle-treated cells; read-out: EC1.5x for production of full length SMN2 mRNA. In outline: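 HEK293H cells stably carrying the SMN2-A minigene treated 24 h at 37° C with compound (DMSO, 200× stock), then lysed. Multiplex RT-qPCR (SMN primers 0.4 μM final; 40 cycles) measures full-length exon 7-containing minigene mRNA, normalized to GAPDH and to vehicle; EC1.5x derived and binned by stars.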
(Quantitative PCR measures a nucleic acid by following its amplification.)

In the next series the test system is Smn protein. The series is described as follows: Smn protein assay in cultured cells (SMN HTRF). The format is cell-based, human. The conditions noted are these: 48 hours; for maximum fold (Fold) increase of Smn protein: SMA patient fibroblast cells, 7-point concentration data, fold increase relative to vehicle control (SMN HTRF); for EC1.5x (concentration giving 1.5-fold Smn protein increase): SMA Type 1 patient fibroblast cells (GM03813), 7-point concentration curve, SMN HTRF, concentration producing 1.5 times Smn protein vs DMSO vehicle control, read-out: EC1.5x for Smn protein expression. In outline: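 Lysates in RIPA with protease inhibitors are incubated overnight at room temperature with HTRF anti-SMN antibodies. EC1.5x is derived from fold increase in ΔF over vehicle.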
On the technique in general: In TR-FRET formats the signal depends on donor and acceptor labels being close together.

Usually melting point stands for the temperature of the solid-liquid transition. On to `O=c1oc2cc(CN3CCC(O)C3)ccc2cc1-c1nc2c(Cl)cccc2s1` (centres unmarked) [Compound 272, 3-(4-chloro-1,3-benzothiazol-2-yl)-7-[(3-hydroxypyrrolidin-1-yl)methyl]-2H-chromen-2-one], for which the melting point lay within 188 to 192 °C. For the same molecule, in series [1], the EC (1.5-fold) fell in the range of 1 to 3 µM. Moreover, the “maximum fold (Fold) increase of Smn protein” value (“maximum fold (Fold) increase” for short) with Smn protein was “** (fold increase between >1.2 and ≤1.35)”.
With `C[C@@H]1CN(c2ccc3cc(-c4cn5ccccc5n4)c(=O)oc3c2)C[C@H](C)N1` [Compound 139, 7-[(3R,5S)-3,5-dimethylpiperazin-1-yl]-3-(imidazo[1,2-a]pyridin-2-yl)-2H-chromen-2-one], the melting point was 261 °C (dec.). In series [1], the EC (1.5-fold) lay within 1 to 3 µM. Further, the “maximum fold (Fold) increase” value with Smn protein is “*** (fold increase between >1.35 and ≤1.5)”.
As for `Cc1cn2cc(-c3cc4ccc(N5C[C@H]6CCCN(C)[C@H]6C5)cc4oc3=O)nc2c(C)n1` [Compound 658, 3-(6,8-dimethylimidazo[1,2-a]pyrazin-2-yl)-7-[(4aR,7aR)-1-methyloctahydro-6H-pyrrolo[3,4-b]pyridin-6-yl]-2H-chromen-2-one], the melting point came out at 232 °C. Moreover, in series [1], the EC (1.5-fold) is less than 0.1 µM. For the same molecule, in the series on Smn protein, the EC1.5x (concentration giving 1.5-fold Smn protein increase) was less than 300 nM and the “maximum fold (Fold) increase” value was “***** (fold increase >1.65)”.
With `CCCN1CCN(c2ccc3cc(-c4cn5cccc(C)c5n4)c(=O)oc3c2)CC1` [Compound 101, 3-(8-methylimidazo[1,2-a]pyridin-2-yl)-7-(4-propylpiperazin-1-yl)-2H-chromen-2-one], the melting point lay within 249 to 251 °C. In series [1], the EC (1.5-fold) was in the range of 1 to 3 µM. For the same molecule, the “maximum fold (Fold) increase” value in the series with Smn protein is “** (fold increase between >1.2 and ≤1.35)”.
On to `Cc1cn2cc(-c3cc4ccc(Cn5ccnc5)cc4oc3=O)nc2c(C)n1` [Compound 851, 3-(6,8-dimethylimidazo[1,2-a]pyrazin-2-yl)-7-(1H-imidazol-1-ylmethyl)-2H-chromen-2-one], for which the melting point lay within 286 to 292 °C. The EC (1.5-fold) in series [1] was 1 to 3 µM. Moreover, in the series with Smn protein, the “maximum fold (Fold) increase” value was “*** (fold increase between >1.35 and ≤1.5)”.
Molecule `Cc1cn2cc(-c3cc4ccc(N5CC[C@@H](N(C)C)C5)cc4oc3=O)cc2c(C)n1` [Compound 708, 7-[(3R)-3-(dimethylamino)pyrrolidin-1-yl]-3-(1,3-dimethylpyrrolo[1,2-a]pyrazin-7-yl)-2H-chromen-2-one] had a melting point of 155 to 158 °C. Also, the EC (1.5-fold) in series [1] was less than 0.1 µM. Besides, in the series on Smn protein, the “maximum fold (Fold) increase” value is “** (fold increase between >1.2 and ≤1.35)”.
`O=c1oc2cc(N3CCNCC3)ccc2cc1-c1ccc2[nH]ncc2c1` [Compound 91, 3-(1H-indazol-5-yl)-7-(piperazin-1-yl)-2H-chromen-2-one] had a melting point of 250 to 252 °C. The EC (1.5-fold) in series [1] lay in the range of 0.3 to 1 µM. For the same molecule, the “maximum fold (Fold) increase” value with Smn protein was “** (fold increase between >1.2 and ≤1.35)”.
The molecule `Cc1ccn2cc(-c3cc4ccc(N5CCN(C)CC5)cc4oc3=O)nc2c1` [Compound 134, 3-(7-methylimidazo[1,2-a]pyridin-2-yl)-7-(4-methylpiperazin-1-yl)-2H-chromen-2-one] registered a melting point of 252 to 262 °C. For the same molecule, the EC (1.5-fold) in series [1] lay within 0.3 to 1 µM. In addition, in the series with Smn protein, the EC1.5x (concentration giving 1.5-fold Smn protein increase) was 1000 to 3000 nM; the “maximum fold (Fold) increase” value was “*** (fold increase between >1.35 and ≤1.5)”.
Consider `Cc1cn2cc(-c3cc4ccc(N5CCC(N6CCOCC6)C5)cc4oc3=O)cc2c(C)n1` (centres unmarked) [Compound 757, 3-(1,3-dimethylpyrrolo[1,2-a]pyrazin-7-yl)-7-[3-(morpholin-4-yl)pyrrolidin-1-yl]-2H-chromen-2-one], for which the melting point was 118 to 122 °C. Also, in series [1], the EC (1.5-fold) lay in the range of 0.3 to 1 µM. Besides, in the series with Smn protein, the EC1.5x (concentration giving 1.5-fold Smn protein increase) was in the range of 1000 to 3000 nM; the “maximum fold (Fold) increase” value is “*** (fold increase between >1.35 and ≤1.5)”.
In turn, `COc1c(F)cc(F)cc1-c1cc2ccc(N3CCNCC3)cc2oc1=O` [Compound 538, 3-(3,5-difluoro-2-methoxyphenyl)-7-(piperazin-1-yl)-2H-chromen-2-one] displayed a melting point of 109 to 111 °C. Moreover, the EC (1.5-fold) in series [1] fell in the range of 3 to 30 µM. Moreover, in the series with Smn protein, the “maximum fold (Fold) increase” value is reported as “* (maximum fold increase of ≤1.2)”.
Consider `Cc1cccn2cc(-c3cc4c(F)cc(N5CCN(C)CC5)cc4oc3=O)nc12` [Compound 423, 5-fluoro-3-(8-methylimidazo[1,2-a]pyridin-2-yl)-7-(4-methylpiperazin-1-yl)-2H-chromen-2-one], for which the melting point was 232 to 237 °C. The EC (1.5-fold) in series [1] was 1 to 3 µM. The “maximum fold (Fold) increase” value in the series with Smn protein is given as “* (maximum fold increase of ≤1.2)”.
`CCCN1CCC(c2ccc3cc(-c4cn5cc(C)nc(C)c5n4)c(=O)oc3c2)CC1` [Compound 842, 3-(6,8-dimethylimidazo[1,2-a]pyrazin-2-yl)-7-(1-propylpiperidin-4-yl)-2H-chromen-2-one] gave a melting point of 208 to 212 °C. The EC (1.5-fold) in series [1] is less than 0.1 µM. Besides, in the series on Smn protein, the EC1.5x (concentration giving 1.5-fold Smn protein increase) was less than 300 nM and the “maximum fold (Fold) increase” value was “***** (fold increase >1.65)”.
The matching figures for `CNCCc1ccc2cc(-c3cn4cc(C)nc(C)c4n3)c(=O)oc2c1` [Compound 911, 3-(6,8-dimethylimidazo[1,2-a]pyrazin-2-yl)-7-[2-(methylamino)ethyl]-2H-chromen-2-one]: 204 to 208 °C, less than 0.1 µM, less than 300 nM and “***** (fold increase >1.65)”.
In turn, `CN(C)CCN(C)c1ccc2cc(-c3cn4ccsc4n3)c(=O)oc2c1` [Compound 202, 7-{[2-(dimethylamino)ethyl](methyl)amino}-3-(imidazo[2,1-b][1,3]thiazol-6-yl)-2H-chromen-2-one] showed a melting point of 185 to 188 °C. Moreover, the EC (1.5-fold) in series [1] lay in the range of 0.3 to 1 µM. Besides, in the series with Smn protein, the “maximum fold (Fold) increase” value was “** (fold increase between >1.2 and ≤1.35)”.
`Cc1ccc2cc(-c3cc4ccc(N5C[C@@H](C)N[C@@H](C)C5)cc4oc3=O)cn2n1` [Compound 639, 7-[(3R,5S)-3,5-dimethylpiperazin-1-yl]-3-(2-methylpyrrolo[1,2-b]pyridazin-6-yl)-2H-chromen-2-one] returned a melting point of 105 to 108 °C. In addition, the EC (1.5-fold) in series [1] was less than 0.1 µM. In the series on Smn protein, the “maximum fold (Fold) increase” value was “* (maximum fold increase of ≤1.2)”.
On to `Cc1cn2cc(-c3cc4ccc(N5CCC(N)CC5)cc4oc3=O)nc2c(C)n1` [Compound 919, 7-(4-aminopiperidin-1-yl)-3-(6,8-dimethylimidazo[1,2-a]pyrazin-2-yl)-2H-chromen-2-one], for which the melting point lay in the range of 262 to 269 °C. For the same molecule, the EC (1.5-fold) in series [1] was less than 0.1 µM. For the same molecule, in the series with Smn protein, the EC1.5x (concentration giving 1.5-fold Smn protein increase) was less than 300 nM; the “maximum fold (Fold) increase” value is “**** (fold increase between >1.5 and ≤1.65)”.
For `Cc1cn2cc(-c3cc4ccc(N5CCN6CCC[C@H]6C5)cc4oc3=O)cc2cn1` [Compound 643, 7-[(8aS)-hexahydropyrrolo[1,2-a]pyrazin-2(1H)-yl]-3-(3-methylpyrrolo[1,2-a]pyrazin-7-yl)-2H-chromen-2-one], the melting point fell in the range of 182 to 184 °C. In addition, the EC (1.5-fold) in series [1] is less than 0.1 µM. Also, in the series on Smn protein, the EC1.5x (concentration giving 1.5-fold Smn protein increase) was less than 300 nM; the “maximum fold (Fold) increase” value is “**** (fold increase between >1.5 and ≤1.65)”.
For `O=c1oc2cc(N3CCCNCC3)cc(F)c2cc1-c1cn2cccnc2n1` [Compound 336, 7-(1,4-diazepan-1-yl)-5-fluoro-3-(imidazo[1,2-a]pyrimidin-2-yl)-2H-chromen-2-one], the melting point is 305 to 307 °C. The EC (1.5-fold) in series [1] was in the range of 0.3 to 1 µM. For the same molecule, the “maximum fold (Fold) increase” value in the series with Smn protein is “* (maximum fold increase of ≤1.2)”.
The matching figures for `O=c1oc2cc(N3CCNCC3)ccc2cc1-c1nc2cc(F)ccc2[nH]1` [Compound 395, 3-(5-fluoro-1H-benzimidazol-2-yl)-7-(piperazin-1-yl)-2H-chromen-2-one]: 295 to 300 °C, 0.3 to 1 µM and “* (maximum fold increase of ≤1.2)”.
Turning to `Cc1cc2cc(-c3cc4ccc(N5CCCN(C)CC5)cc4oc3=O)oc2c(C)n1` [Compound 775, 3-(5,7-dimethylfuro[2,3-c]pyridin-2-yl)-7-(4-methyl-1,4-diazepan-1-yl)-2H-chromen-2-one], the melting point fell in the range of 243 to 245 °C. Also, the EC (1.5-fold) in series [1] was less than 0.1 µM. Also, in the series with Smn protein, the EC1.5x (concentration giving 1.5-fold Smn protein increase) is less than 300 nM; the “maximum fold (Fold) increase” value is “**** (fold increase between >1.5 and ≤1.65)”.
`Cc1ccn2cc(-c3cc4ccc(N5CCNCC5)cc4oc3=O)nc2c1` [Compound 131, 3-(7-methylimidazo[1,2-a]pyridin-2-yl)-7-(piperazin-1-yl)-2H-chromen-2-one] displayed a melting point of 260 to 270 °C. For the same molecule, the EC (1.5-fold) in series [1] fell in the range of 0.3 to 1 µM. In the series with Smn protein, the “maximum fold (Fold) increase” value is “*** (fold increase between >1.35 and ≤1.5)”.
